# Patent US20230338337A1, “BIOMARKERS FOR CANCER THERAPY USING MDM2 ANTAGONISTS” (OTSUKA PHARMACEUTICAL CO., LTD., priority 2019, published 2023)
# pIC50: −log10 of the molar value. “Also recorded” adds a separate entry of the source.
# What was measured:
# [1] = tested on: 210 p53 wild-type cancer cell lines; test: Cell line panel screen, CellTiter-Glo, 3 days; format: cell-based; details: ANOVA, adjusted p-value<0.02
# Procedure: Genomic features for these cell lines such as somatic mutations, copy number alterations and hypermethylation were obtained from the list of Cancer Functional Events as reported by Garnett et al (2016). ANOVA method was used to identify significant associations of genomics features to Compound 1 drug response.
# Cancer cells were cultured in appropriate medium.
# Each cell line was tested in triplicates.
# [2] = tested on: 12 p53 wild-type, patient-derived mesothelioma cell lines; test: 72-hour Alamar Blue proliferation assay, panel; format: cell-based; details: Homo sapiens
# Procedure: (§1) For all cell lines the number of viable cells was determined by measuring the conversion of Rezasurin (Alamar Blue) to Resorufin in response to mitochondrial activity of the viable cells. Alamar Blue™ (AbD Serotec/Bio-Rad, Hercules, CA, USA) was added to 10% of the well volume (20 μl/well) towards the end of the treatment period and incubated for a further 8-24 h. The plate was then read at 535 nm (excitation) and 590 nm (emission) on a SpectraMax Gemini reader (Molecular Devices, Sunnyvale, CA, USA). Each well was calculated as percentage of the mean DMSO control.
# [3] = tested on: #12 mesothelioma cell line; test: 72-hour Alamar Blue proliferation assay; format: cell-based; details: Homo sapiens, read-out: Mean Compound 1 Proliferation IC50 (μM), cell line #12
# Procedure: as §1
# [4] = tested on: #19 mesothelioma cell line; test: 72-hour Alamar Blue proliferation assay; format: cell-based; details: Homo sapiens, read-out: Mean Compound 1 Proliferation IC50 (μM), cell line #19
# Procedure: as §1
# [5] = tested on: #2 mesothelioma cell line; test: 72-hour Alamar Blue proliferation assay; format: cell-based; details: Homo sapiens, read-out: Mean Compound 1 Proliferation IC50 (μM), cell line #2
# Procedure: as §1
# [6] = tested on: #24 mesothelioma cell line; test: 72-hour Alamar Blue proliferation assay; format: cell-based; details: Homo sapiens, read-out: Mean Compound 1 Proliferation IC50 (μM), cell line #24
# Procedure: as §1
# [7] = tested on: #35 mesothelioma cell line; test: 72-hour Alamar Blue proliferation assay; format: cell-based; details: Homo sapiens, read-out: Mean Compound 1 Proliferation IC50 (μM), cell line #35
# Procedure: as §1
# [8] = tested on: #40 mesothelioma cell line; test: 72-hour Alamar Blue proliferation assay; format: cell-based; details: Homo sapiens, read-out: Mean Compound 1 Proliferation IC50 (μM), cell line #40
# Procedure: as §1
# [9] = tested on: #52 mesothelioma cell line; test: 72-hour Alamar Blue proliferation assay; format: cell-based; details: Homo sapiens, read-out: Mean Compound 1 Proliferation IC50 (μM), cell line #52
# Procedure: as §1
# [10] = tested on: MESO-29T mesothelioma cell line; test: 72-hour Alamar Blue proliferation assay; format: cell-based; details: Homo sapiens, read-out: Mean Compound 1 Proliferation IC50 (μM), cell line MESO-29T
# Procedure: as §1
# [11] = tested on: MESO-50T mesothelioma cell line; test: 72-hour Alamar Blue proliferation assay; format: cell-based; details: Homo sapiens, read-out: Mean Compound 1 Proliferation IC50 (μM), cell line MESO-50T
# Procedure: as §1
# [12] = tested on: human patient-derived mesothelioma cell lines; test: Induction of activated caspase-3, panel; format: cell-based; details: all 12 cell lines
# Procedure: (§2) In certain embodiments, the MDM2 antagonist induces apoptosis of the cancer cell. Apoptosis may typically be mediated via activated caspase-3. Induction of apoptosis can be determined by detecting cells that are positive for activated caspase-3 following 72-hour treatment with 1 μM of the MDM2 antagonist. […] In certain embodiments, at least 10%, at least 20% or at least 30% of cells staining positive for activated caspase-3 is an indicator of induced apoptosis. […] Active caspase-3 staining kits are commercially-available, for example the “Cleaved Caspase-3 Staining Kit (Red)” available from Abcam (Cambridge, UK) as catalogue number ab65617. The Invitrogen Cell Event dye (C10423) may also be used.
# (§3) The extent of Compound 1-induced apoptosis is not predicted from the IC50 values obtained from the Alarmar Blue proliferation assays (Table 1), thus emphasising the impact of grouping cell lines specifically based on their apoptotic potential for subsequent bioinformatics analyses described in the following section.
# [13] = tested on: #12 mesothelioma cell line; test: Induction of activated caspase-3; format: cell-based, human; details: 72-hour treatment with 1 μM Compound 1
# Procedure: as §2, §3
# [14] = tested on: #18 mesothelioma cell line; test: Induction of activated caspase-3; format: cell-based, human; details: 72-hour treatment with 1 μM Compound 1
# Procedure: as §2, §3
# [15] = tested on: #19 mesothelioma cell line; test: Induction of activated caspase-3; format: cell-based, human; details: 72-hour treatment with 1 μM Compound 1
# Procedure: as §2, §3
# [16] = tested on: #2 mesothelioma cell line; test: Induction of activated caspase-3; format: cell-based, human; details: 72-hour treatment with 1 μM Compound 1
# Procedure: as §2, §3
# [17] = tested on: #24 mesothelioma cell line; test: Induction of activated caspase-3; format: cell-based, human; details: 72-hour treatment with 1 μM Compound 1
# Procedure: as §2, §3
# [18] = tested on: #26 mesothelioma cell line; test: Induction of activated caspase-3; format: cell-based, human; details: 72-hour treatment with 1 μM Compound 1
# Procedure: as §2, §3
# [19] = tested on: #35 mesothelioma cell line; test: Induction of activated caspase-3; format: cell-based, human; details: 72-hour treatment with 1 μM Compound 1
# Procedure: as §2, §3
# [20] = tested on: #40 mesothelioma cell line; test: Induction of activated caspase-3; format: cell-based, human; details: 72-hour treatment with 1 μM Compound 1
# Procedure: as §2, §3
# [21] = tested on: #52 mesothelioma cell line; test: Induction of activated caspase-3; format: cell-based, human; details: 72-hour treatment with 1 μM Compound 1
# Procedure: as §2, §3
# [22] = tested on: MESO-29T mesothelioma cell line; test: Induction of activated caspase-3; format: cell-based, human; details: 72-hour treatment with 1 μM Compound 1
# Procedure: as §2, §3
# [23] = tested on: MESO-50T mesothelioma cell line; test: Induction of activated caspase-3; format: cell-based, human; details: 72-hour treatment with 1 μM Compound 1
# Procedure: as §2, §3
# [24] = tested on: MESO-7T mesothelioma cell line; test: Induction of activated caspase-3; format: cell-based, human; details: 72-hour treatment with 1 μM Compound 1
# Procedure: as §2, §3
# [25] = tested on: Caki-1 renal cancer cell line with BAP1 knock-down; test: CAKI1 shBAP1 apoptotic assay (Annexin V); format: cell-based, human; details: 72 hours with 1 uM Compound 1; BAP1 loss versus control
# Text: 3 independent shRNAs targeting BAP1 were used and BAP1 knock-down levels achieved with 2 independent shRNAs.
# [26] = tested on: primary mesothelioma cell line Meso #24 with BAP1 knockdown; test: Apoptosis after BAP1 shRNA knockdown; format: cell-based, human; details: BAP1 knockdown versus control
# Text: BAP1 shRNA was used on primary mesothelioma cell line Meso #24 to achieves table BAP1 knockdown.
# [27] = tested on: OCI-AML3 cells; test: Induction of apoptosis by cleaved caspase-3 cytometry; format: cell-based; details: 0.1 μM COMPOUND 1 alone, 72 h
structure (smiles),measurement,setting,value
"CC[C@@](O)(c1cc(F)c2c(c1)C(=O)N([C@H](c1ccc(Cl)cc1)[C@H](C)C(=O)O)[C@@]2(OC)c1ccc(Cl)cc1)C1CCOCC1 [Compound 1, (2S,3S)-3-(4-chlorophenyl)-3-[(1R)-1-(4-chlorophenyl)-7-fluoro-5-[(1S)-1-hydroxy-1-(oxan-4-yl)propyl]-1-methoxy-3-oxo-2,3-dihydro-1H-isoindol-2-yl]-2-methylpropanoic acid]",sensitivity of cell lines with CDKN2A loss versus wild-type CDKN2A,[1],enhanced sensitivity
same,pIC50,[2]; in 7 of the 12 cell lines,> 7.00
same,pIC50,[2]; in 11 cell lines,> 6.40
same,IC50,[3],0.078 µM
same,IC50,[4],0.17 µM
same,IC50,[5],0.062 µM
same,IC50,[6],0.094 µM
same,IC50,[7],0.045 µM
same,IC50,[8],0.0092 µM
same,IC50,[9],0.076 µM
same,IC50,[10],> 10 µM
same,IC50,[11],0.067 µM
same,activated caspase-3 induction,[12],increase in activated caspase-3 was observed in all cell lines
same,cells staining positive for activated caspase-3,[13],> 40%
same,apoptosis (cells positive for activated caspase-3),[14],< 40%
same,cells staining positive for activated caspase-3,[15],> 40%
same,cells staining positive for activated caspase-3,[16],> 40%
same,apoptosis (cells positive for activated caspase-3),[17],< 40%
same,apoptosis (cells positive for activated caspase-3),[18],< 40%
same,apoptosis (cells positive for activated caspase-3),[19],< 40%
same,cells staining positive for activated caspase-3,[20],> 40%
same,cells staining positive for activated caspase-3,[21],> 40%
same,apoptosis (cells positive for activated caspase-3),[22],< 40%
same,apoptosis (cells positive for activated caspase-3),[23],< 40%
same,cells staining positive for activated caspase-3,[24],> 40%
same,% of cells undergoing apoptosis (Annexin V),[25],increased apoptosis
same,apoptosis after Compound 1 treatment,[26],increased apoptosis
same,level of apoptosis (cleaved caspase-3),[27],did not induce a high level of apoptosis; also recorded: does not induce substantial levels of cell death by apoptosis
